The values below come from ChEMBL document CHEMBL4627415, “Design and Structural Optimization of Dual FXR/PPARδ Activators” (J Med Chem, 2020).

pEC50: −log10 of the molar value. ≈ marks a conversion by molar mass, not a printed value. Calls of active or inactive are those of the source. The rule behind the calls is not given here.

A word on the pEC50: it is −log10 of the EC50, conventionally taken in molar units. As a reminder, the solubility is how much of the substance goes into solution per volume.

One data set has as its target T1, Bile acid receptor (Homo sapiens, UniProt Q96RI1).
T1 sequence (Q96RI1 whole entry): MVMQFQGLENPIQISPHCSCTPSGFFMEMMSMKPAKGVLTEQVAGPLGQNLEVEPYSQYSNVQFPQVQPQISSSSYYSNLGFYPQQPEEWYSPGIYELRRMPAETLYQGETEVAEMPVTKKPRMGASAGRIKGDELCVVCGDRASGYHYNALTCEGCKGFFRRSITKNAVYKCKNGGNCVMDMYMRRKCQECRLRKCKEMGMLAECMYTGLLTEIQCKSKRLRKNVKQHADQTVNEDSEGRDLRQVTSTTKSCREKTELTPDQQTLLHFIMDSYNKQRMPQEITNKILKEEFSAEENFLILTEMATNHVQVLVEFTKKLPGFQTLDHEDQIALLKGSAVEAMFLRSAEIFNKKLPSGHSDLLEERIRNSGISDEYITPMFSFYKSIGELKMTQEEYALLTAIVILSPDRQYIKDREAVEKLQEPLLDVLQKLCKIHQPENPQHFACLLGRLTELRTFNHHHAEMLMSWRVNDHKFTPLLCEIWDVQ
Description: Activation of human FXR LBD expressed in HEK293T cells assessed as induction of receptor activation incubated for 12 to 14 hrs by luciferase reporter gene assay. It is filed as cell-based, HEK-293T. A general note: Reporter assays use an easily measured gene product as a stand-in for the process of interest.

The target in data set [1] is T2, Bile acid receptor (Homo sapiens) (UniProt Q96RI1).
T2 sequence (whole entry): T1 sequence (Q96RI1 whole entry)
Description: Activation of human FXR LBD expressed in HEK293T cells assessed as induction of receptor activation at 1 uM incubated for 12 to 14 hrs by luciferase reporter gene assay relative to GW4064. It is filed as cell-based. The note with it: HEK-293T.

Data set [2] addresses T2, Bile acid receptor (Homo sapiens). The experiment in a line: Activation of human FXR LBD expressed in HEK293T cells assessed as induction of receptor activation at 10 uM incubated for 12 to 14 hrs by luciferase reporter gene assay. It is filed as cell-based. The note with it: HEK-293T.
The target of data set [3] is T3, Peroxisome proliferator-activated receptor delta (Homo sapiens) (UniProt Q03181).
T3 sequence (whole entry): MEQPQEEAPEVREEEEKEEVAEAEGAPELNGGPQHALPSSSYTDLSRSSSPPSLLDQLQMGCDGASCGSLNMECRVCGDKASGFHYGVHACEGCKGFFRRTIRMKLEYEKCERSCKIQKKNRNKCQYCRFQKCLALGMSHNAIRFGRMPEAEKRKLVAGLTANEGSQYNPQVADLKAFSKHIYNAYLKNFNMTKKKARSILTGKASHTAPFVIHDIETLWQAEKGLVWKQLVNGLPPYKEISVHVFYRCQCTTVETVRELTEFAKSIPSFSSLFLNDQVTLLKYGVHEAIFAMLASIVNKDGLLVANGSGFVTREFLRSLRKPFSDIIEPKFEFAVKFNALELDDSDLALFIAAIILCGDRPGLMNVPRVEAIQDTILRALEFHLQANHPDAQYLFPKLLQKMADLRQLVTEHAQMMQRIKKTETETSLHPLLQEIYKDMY
Description: Activation of human PPAR-delta LBD expressed in HEK293T cells assessed as induction of receptor activation at 10 uM incubated for 12 to 14 hrs by luciferase reporter gene assay. It is filed as cell-based. The note with it: HEK-293T.

Data set [4] concerns the target T4, Retinoic acid receptor alpha (Homo sapiens) (UniProt P10276).
T4 sequence (whole entry): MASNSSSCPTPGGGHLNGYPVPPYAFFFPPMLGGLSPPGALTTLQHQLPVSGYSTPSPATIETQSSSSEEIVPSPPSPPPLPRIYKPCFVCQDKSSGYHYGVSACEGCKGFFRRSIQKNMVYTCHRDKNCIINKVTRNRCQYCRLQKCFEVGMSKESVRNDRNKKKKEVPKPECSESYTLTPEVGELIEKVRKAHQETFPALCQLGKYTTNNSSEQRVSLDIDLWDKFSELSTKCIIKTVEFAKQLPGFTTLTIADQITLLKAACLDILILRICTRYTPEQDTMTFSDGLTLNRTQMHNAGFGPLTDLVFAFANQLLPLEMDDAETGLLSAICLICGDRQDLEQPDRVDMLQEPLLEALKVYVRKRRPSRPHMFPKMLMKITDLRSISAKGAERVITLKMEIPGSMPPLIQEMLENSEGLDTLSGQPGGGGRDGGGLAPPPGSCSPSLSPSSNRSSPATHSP
The experiment in a line: Activation of human RAR-alphaLBD expressed in HEK293T cells assessed as induction of receptor activation at 10 uM incubated for 12 to 14 hrs by luciferase reporter gene assay. It is filed as cell-based. The note with it: HEK-293T.

Data set [5] deals with T5, Peroxisome proliferator-activated receptor gamma (Homo sapiens) (UniProt P37231).
T5 sequence (whole entry): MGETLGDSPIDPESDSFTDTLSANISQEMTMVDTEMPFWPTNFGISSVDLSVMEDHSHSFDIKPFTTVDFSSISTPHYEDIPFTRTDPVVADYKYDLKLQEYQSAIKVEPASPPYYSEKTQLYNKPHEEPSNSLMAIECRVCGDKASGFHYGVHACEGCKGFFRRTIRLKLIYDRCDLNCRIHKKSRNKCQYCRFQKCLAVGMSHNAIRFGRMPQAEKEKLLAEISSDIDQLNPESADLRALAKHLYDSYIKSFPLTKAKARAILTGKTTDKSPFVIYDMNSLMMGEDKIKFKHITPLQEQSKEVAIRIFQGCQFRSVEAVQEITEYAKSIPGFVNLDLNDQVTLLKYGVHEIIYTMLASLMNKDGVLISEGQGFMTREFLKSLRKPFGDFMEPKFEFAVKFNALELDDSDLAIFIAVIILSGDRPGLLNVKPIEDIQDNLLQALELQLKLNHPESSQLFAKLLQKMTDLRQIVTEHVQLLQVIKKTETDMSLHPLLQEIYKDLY
The experiment in a line: Activation of human PPAR-gamma LBD expressed in HEK293T cells assessed as induction of receptor activation at 10 uM incubated for 12 to 14 hrs by luciferase reporter gene assay. As to conditions: HEK-293T. It is filed as cell-based.

Data set [6] addresses T6, Peroxisome proliferator-activated receptor delta (Mus musculus) (UniProt P35396).
T6 sequence (whole entry): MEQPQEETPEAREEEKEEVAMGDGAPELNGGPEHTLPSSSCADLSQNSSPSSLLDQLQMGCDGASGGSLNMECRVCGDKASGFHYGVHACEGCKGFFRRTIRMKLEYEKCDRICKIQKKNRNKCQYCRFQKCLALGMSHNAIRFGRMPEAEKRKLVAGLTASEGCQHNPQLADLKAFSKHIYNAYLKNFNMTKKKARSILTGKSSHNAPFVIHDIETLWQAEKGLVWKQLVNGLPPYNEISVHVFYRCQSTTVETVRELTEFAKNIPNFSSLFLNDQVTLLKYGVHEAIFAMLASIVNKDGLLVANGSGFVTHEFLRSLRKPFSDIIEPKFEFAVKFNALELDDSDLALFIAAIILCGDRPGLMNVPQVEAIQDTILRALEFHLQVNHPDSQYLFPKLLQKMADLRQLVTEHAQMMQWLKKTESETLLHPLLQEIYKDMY
The experiment in a line: Activation of PPARD in mouse C2C12 cells assessed as increase LpL mRNA expression at 3 uM incubated for 8 hrs by quantitative real time PCR analysis. Format: cell-based.

A short description of data set [7]: Aqueous solubility in pH 8 buffer by HPLC analysis. It is filed as physicochemical.
Data set [8] in a line: Stability in Sprague-Dawley rat liver microsomes assessed as remaining parent compound level at 10 uM presence of NADPH regenerating system by HPLC analysis. It is filed as ADME, Microsome. As to conditions: read-out: Stability. (Liver microsomes are a subcellular fraction often used to study metabolism.)

For `CC(C)c1onc(-c2c(Cl)cccc2Cl)c1COc1ccc(CNc2ccc(CC(=O)O)cc2)c(Cl)c1`, the negative-log EC50 (pEC50) at Bile acid receptor was 6.03. The %max in data set [1] is 31%. Also, the outcome in [2], in [3] and in [6] was Active. Also, the result in [4] and in data set [5] was inactive. This compound registered a solubility in data set [7] of 159 µg/mL (≈ 284 µM). Further, in data set [8], the remaining at 10 µM came out at 48%.
